These results are taken from patent US8080657B2, “Compounds of reverse turn mimetics and the use thereof” (Choongwae Pharma Corporation, priority 2008, dated 2011).

In the experiment the test system is Wnt signaling. Briefly: TopFlash reporter gene bioassay in SW480 cells. In kind it is cell-based.
Setting [1] is: Homo sapiens, SW480, TopFlash reporter gene assay, inhibition of Wnt signaling, read-out: RGA, IC50 (μM) TopF.
The mark [2] stands for this setting: Homo sapiens, SW480, read-out: RGA, IC50 (μM) TopF.

SMILES strings stand for the structures. Like-named read-outs stand apart in the source and are kept apart here.

On to `C=CCN1CC(=O)N2[C@@H](Cc3ccc(O)cc3)C(=O)N(Cc3ccc(OCCCCC)cc3)C[C@@H]2N1C(=O)NCc1ccccc1` [compound 154], for which, under setting [1], the half-maximal inhibitory concentration (IC50) is 11.8 ± 0.9 µM.

On to `C=CCN1CC(=O)N2[C@@H](Cc3ccc(O)cc3)C(=O)N(Cc3csc4cc(NC(=O)NC)ccc34)C[C@@H]2N1C(=O)NCc1ccccc1` [compound 155], for which, under setting [1], the concentration for half-maximal inhibition (IC50) amounted to 11.8 ± 1.61 µM.

On to `C=CCN1CC(=O)N2[C@@H](Cc3ccc(O)cc3)C(=O)N(Cc3ccc(OC)c(-c4cccnc4)c3)C[C@@H]2N1C(=O)NCc1ccccc1` [compound 208], for which the half-inhibitory concentration (IC50) under setting [1] stood at 3.27 ± 0.8 µM.

`C=CCN1CC(=O)N2[C@@H](Cc3ccc(O)cc3)C(=O)N(Cc3cccc(C(=O)NC4CCCCC4)c3)C[C@@H]2N1C(=O)NCc1ccccc1` [compound 38]: the IC50 under setting [1] was 0.61 ± 0.09 µM.

Consider `C=CCOc1cccc(CN2C[C@H]3N(C(=O)CN(CC=C)N3C(=O)NCc3ccccc3)[C@@H](Cc3ccc(O)cc3)C2=O)c1` [compound 169], for which the IC50 under setting [1] came out at 2.01 ± 0.34 µM.

Consider `C=CCN1CC(=O)N2[C@@H](Cc3ccc(O)cc3)C(=O)N(Cc3cccc(-c4ccccc4)n3)C[C@@H]2N1C(=O)NCc1ccccc1` [compound 186], for which the IC50 under setting [1] was found to be 2.66 ± 0.74 µM.

Consider `C=CCN1CC(=O)N2[C@@H](Cc3ccc(O)cc3)C(=O)N(Cc3cccc(-c4ccc(N5CCOCC5)nc4)c3)C[C@@H]2N1C(=O)NCc1ccccc1` [compound 62], for which, under setting [1], the IC50 was found to be 0.81 ± 0.15 µM.

`C=CCN1CC(=O)N2[C@@H](Cc3ccc(O)cc3)C(=O)N(Cc3cccnc3Br)C[C@@H]2N1C(=O)NCc1ccccc1` [compound 125]: the IC50 under setting [1] stood at 1.57 ± 0.29 µM.

As for `C=CCN1CC(=O)N2[C@@H](Cc3ccc(O)cc3)C(=O)N(Cc3cccc4c3OC(F)(F)O4)C[C@@H]2N1C(=O)NCc1ccccc1` [compound 124], the IC50 under setting [1] amounted to 1.56 ± 0.33 µM.

As to `C=CCN1CC(=O)N2[C@@H](Cc3ccc(O)cc3)C(=O)N(Cc3cccc(Br)c3)C[C@@H]2N1C(=O)NCc1ccccc1` [Compound F], the IC50 (Homo sapiens, SW480, 24 h, SW480 cells, 24 hours treatment, luciferase assay, read-out: IC50 for SW480 cells, TopFlash reporter gene bioassay) came to 0.73 ± 0.08 µM.

In the case of `C=CCN1CC(=O)N2[C@@H](Cc3ccc(O)cc3)C(=O)N(Cc3ccc(OC)c(OC)c3)C[C@@H]2N1C(=O)NCc1ccccc1` [compound 175], the IC50 under setting [1] stood at 2.36 ± 0.57 µM.

As to `C=CCN1CC(=O)N2[C@@H](Cc3ccc(O)cc3)C(=O)N(Cc3ccccc3N)C[C@@H]2N1C(=O)NCc1ccccc1` [compound 78], under setting [1], the IC50 came out at 0.95 ± 0.15 µM.

On to `C=CCN1CC(=O)N2[C@@H](Cc3ccc(O)cc3)C(=O)N(Cc3cn(-c4cccc(F)c4)c4ccccc34)C[C@@H]2N1C(=O)NCc1ccccc1` [compound 166], for which the IC50 under setting [1] stood at 17.5 ± 5.57 µM.

With `C=CCN1CC(=O)N2[C@@H](Cc3ccc(O)cc3)C(=O)N(Cc3cccc4ccn(S(=O)(=O)c5ccc(C)cc5)c34)C[C@@H]2N1C(=O)NCc1ccccc1` [compound 64], under setting [1], the half-maximal inhibitory concentration (IC50) turned out to be 0.82 ± 0.33 µM.

Take `C=CCN1CC(=O)N2[C@@H](Cc3ccc(O)cc3)C(=O)N(Cc3ccc(F)c4scnc34)C[C@@H]2N1C(=O)NCc1ccc(F)c(F)c1` [compound 80]: the concentration for half-maximal inhibition (IC50) under setting [1] was 0.96 ± 0.13 µM.

In the case of `C=CCN1CC(=O)N2[C@@H](Cc3ccc(O)cc3)C(=O)N(Cc3ccc(F)c(-c4cccnc4)c3)C[C@@H]2N1C(=O)NCc1ccccc1` [compound 28], under setting [1], the IC50 is 0.52 ± 0.06 µM.

Regarding `C=CCN1CC(=O)N2[C@@H](Cc3ccc(O)cc3)C(=O)N(Cc3ccc([N+](=O)[O-])c(O)c3)C[C@@H]2N1C(=O)NCc1ccccc1` [compound 259], the half-inhibitory concentration (IC50) under setting [1] stood at 7.62 ± 1.89 µM.

Consider `C=CCOc1c(CN2C[C@H]3N(C(=O)CN(CC=C)N3C(=O)NCc3ccccc3)[C@@H](Cc3ccc(O)cc3)C2=O)cccc1OC` [compound 90], for which the IC50 under setting [2] was determined as 1.03 ± 0.16 µM.

As for `C=CCN1CC(=O)N2[C@@H](Cc3ccc(O)cc3)C(=O)N(Cc3cccc(NC=O)c3)C[C@@H]2N1C(=O)NCc1ccccc1` [compound 57], the IC50 under setting [1] turned out to be 0.76 ± 0.12 µM.

`C=CCN1CC(=O)N2[C@@H](Cc3ccc(O)cc3)C(=O)N(Cc3cccc4c3ncn4CCC)C[C@@H]2N1C(=O)NCc1ccccc1` [compound 71]: the IC50 under setting [1] was determined as 0.9 ± 0.08 µM.

In the case of `C=CCN1CC(=O)N2[C@@H](Cc3ccc(O)cc3)C(=O)N(Cc3cccc(-c4cccnc4F)c3)C[C@@H]2N1C(=O)NCc1ccccc1` [compound 7], the IC50 under setting [1] turned out to be 0.26 ± 0.08 µM.

Turning to `C=CCN1CC(=O)N2[C@@H](Cc3ccc(O)cc3)C(=O)N(Cc3cccc(C(C)=O)c3)C[C@@H]2N1C(=O)NCc1ccccc1` [compound 73], under setting [1], the IC50 was 0.9 ± 0.27 µM.

On to `C=CCN1CC(=O)N2[C@@H](Cc3ccc(OP(=O)(O)O)cc3)C(=O)N(Cc3cccc(OC)c3OC)C[C@@H]2N1C(=O)NCc1ccccc1` [compound 31], for which, under setting [2], the IC50 stood at 0.54 ± 0.08 µM.

Turning to `C=CCN1CC(=O)N2[C@@H](Cc3ccc(O)cc3)C(=O)N(Cc3cccc(N(C)C(=O)OC)c3)C[C@@H]2N1C(=O)NCc1ccccc1` [compound 109], the half-maximal inhibitory concentration (IC50) under setting [1] is 1.35 ± 0.15 µM.

`C=CCN1CC(=O)N2[C@@H](Cc3ccc(O)cc3)C(=O)N(Cc3csc4cc(NCc5ccccc5)ccc34)C[C@@H]2N1C(=O)NCc1ccccc1` [compound 138]: the IC50 (TopFlash reporter gene assay, inhibition of Wnt signaling, read-out: RGA, IC50 (μM) TopF) amounted to 1.86 ± 0.38 µM.

As to `C=CCN1CC(=O)N2[C@@H](Cc3ccc(O)cc3)C(=O)N(Cc3ccc(F)c4scnc34)C[C@@H]2N1C(=O)NCc1cccs1` [compound 107], under setting [1], the concentration for half-maximal inhibition (IC50) is 1.3 ± 0.2 µM.

For the compound `C=CCN1CC(=O)N2[C@@H](Cc3ccc(O)cc3)C(=O)N(Cc3cccc(OC)c3Oc3cccc(F)c3)C[C@@H]2N1C(=O)NCc1ccccc1` [compound 252], under setting [1], the 50% inhibitory concentration (IC50) is 7.05 ± 0.87 µM.

Turning to `C=CCN1CC(=O)N2[C@@H](Cc3ccc(O)cc3)C(=O)N(Cc3cccc(C(N)=O)n3)C[C@@H]2N1C(=O)NCc1ccccc1` [compound 168], under setting [1], the half-inhibitory concentration (IC50) amounted to 2.01 ± 0.2 µM.

With `C=CCN1CC(=O)N2[C@@H](Cc3ccc(O)cc3)C(=O)N(Cc3cccc(C(=O)NOC)c3)C[C@@H]2N1C(=O)NCc1ccccc1` [compound 182], the IC50 under setting [1] was found to be 2.48 ± 0.22 µM.

With `C=CCN1CC(=O)N2[C@@H](Cc3ccc(O)cc3)C(=O)N(Cc3cccc(Br)c3)C[C@@H]2N1C(=O)NCc1ccccc1` [compound 52], the IC50 under setting [1] turned out to be 0.73 ± 0.09 µM.

For `C=CCN1CC(=O)N2[C@@H](Cc3ccc(O)cc3)C(=O)N(Cc3cccc(C(=O)NN)c3)C[C@@H]2N1C(=O)NCc1ccccc1` [compound 160], under setting [1], the IC50 worked out at 14.2 ± 2.05 µM.

Regarding `C=CCN1CC(=O)N2[C@@H](Cc3ccc(O)cc3)C(=O)N(Cc3ccc(OCCCC)cc3)C[C@@H]2N1C(=O)NCc1ccccc1` [compound 214], the IC50 under setting [1] was 3.72 ± 0.47 µM.

On to `C=CCN1CC(=O)N2[C@@H](Cc3ccc(O)cc3)C(=O)N(Cc3cccc4c3ncn4C(=O)CN)C[C@@H]2N1C(=O)NCc1ccccc1` [compound 37], for which the IC50 under setting [1] came out at 0.6 ± 0.13 µM.

Regarding `C=CCN1CC(=O)N2[C@@H](Cc3ccc(O)cc3)C(=O)N(Cc3ccc(F)c4scnc34)C[C@@H]2N1C(=O)NCc1ccc(C#N)cc1` [compound 255], under setting [1], the concentration for half-maximal inhibition (IC50) came to 7.17 ± 1.33 µM.

As for `C=CCN1CC(=O)N2[C@@H](Cc3ccc(O)cc3)C(=O)N(Cc3cccc(-c4ccc(O)cc4)n3)C[C@@H]2N1C(=O)NCc1ccccc1` [compound 248], the 50% inhibitory concentration (IC50) under setting [1] is 6.71 ± 1.57 µM.

`C=CCN1CC(=O)N2[C@@H](Cc3ccc(O)cc3)C(=O)N(Cc3cccc(-c4ccc[nH]c4=O)c3)C[C@@H]2N1C(=O)NCc1ccccc1` [compound 156]: under setting [1], the IC50 stood at 12.2 ± 2.02 µM.

For the compound `C=CCN1CC(=O)N2[C@@H](Cc3ccc(O)cc3)C(=O)N(Cc3csc4ccc(Cl)cc34)C[C@@H]2N1C(=O)NCc1ccccc1` [compound 43], under setting [1], the IC50 came to 0.66 ± 0.06 µM.

As to `C=CCN1CC(=O)N2[C@@H](Cc3ccc(O)cc3)C(=O)N(Cc3ccc4ncoc4c3)C[C@@H]2N1C(=O)NCc1ccccc1` [compound 228], under setting [1], the 50% inhibitory concentration (IC50) is 4.51 ± 0.72 µM.

Take `C=CCN1CC(=O)N2[C@@H](Cc3ccc(O)cc3)C(=O)N(Cc3cccc(C(=O)N4CCCCC4)c3)C[C@@H]2N1C(=O)NCc1ccccc1` [compound 114]: the IC50 under setting [1] came out at 1.42 ± 0.51 µM.

Consider `C=CCN1CC(=O)N2[C@@H](Cc3ccc(O)cc3)C(=O)N(Cc3cn(C)c4ccccc34)C[C@@H]2N1C(=O)NCc1ccccc1` [compound 67], for which the IC50 under setting [1] turned out to be 0.85 ± 0.089 µM.

For the compound `C=CCN1CC(=O)N2[C@@H](Cc3ccc(O)cc3)C(=O)N(Cc3cccc(NC(N)=O)c3)C[C@@H]2N1C(=O)NCc1ccccc1` [compound 225], the 50% inhibitory concentration (IC50) under setting [1] was 4.3 ± 0.67 µM.

Consider `C=CCN1CC(=O)N2[C@@H](Cc3ccc(O)cc3)C(=O)N(Cc3cccc(C#N)c3)C[C@@H]2N1C(=O)NCc1ccccc1` [compound 132], for which the IC50 under setting [1] was determined as 1.71 ± 0.28 µM.

On to `C=CCN1CC(=O)N2[C@@H](Cc3ccc(O)cc3)C(=O)N(Cc3cccc(NS(C)(=O)=O)c3)C[C@@H]2N1C(=O)NCc1ccccc1` [compound 181], for which the IC50 under setting [1] is 2.47 ± 0.37 µM.

As for `C=CCN1CC(=O)N2[C@@H](Cc3ccc(OP(=O)(O)O)cc3)C(=O)N(Cc3ccc(F)c4scnc34)C[C@@H]2N1C(=O)NCc1ccc2c(c1)OCO2` [compound 77], under setting [2], the IC50 amounted to 0.94 ± 0.07 µM.

For the compound `C=CCN1CC(=O)N2[C@@H](Cc3ccc(O)cc3)C(=O)N(Cc3cccc4ccn(-c5ccccn5)c34)C[C@@H]2N1C(=O)NCc1ccccc1` [compound 187], the IC50 under setting [1] was determined as 2.67 ± 0.28 µM.

As for `C=CCN1CC(=O)N2[C@@H](Cc3ccc(O)cc3)C(=O)N(Cc3cccc(-c4cccnc4OC)c3)C[C@@H]2N1C(=O)NCc1ccccc1` [compound 98], under setting [1], the 50% inhibitory concentration (IC50) was found to be 1.17 ± 0.15 µM.

In the case of `C=CCN1CC(=O)N2[C@@H](Cc3ccc(O)cc3)C(=O)N(Cc3csc4ccc(NS(C)(=O)=O)cc34)C[C@@H]2N1C(=O)NCc1ccccc1` [compound 246], the half-inhibitory concentration (IC50) under setting [2] was found to be 6.59 ± 0.86 µM.

With `C=CCN1CC(=O)N2[C@@H](Cc3ccc(O)cc3)C(=O)N(Cc3cccc4c(C)c(-c5ccccc5F)n(S(=O)(=O)c5ccccc5)c34)C[C@@H]2N1C(=O)NCc1ccccc1` [compound 63], under setting [1], the IC50 was determined as 0.82 ± 0.25 µM.

`C=CCN1CC(=O)N2[C@@H](Cc3ccc(O)cc3)C(=O)N(Cc3cncc(C(=O)OC)c3)C[C@@H]2N1C(=O)NCc1ccccc1` [compound 233]: the IC50 under setting [1] amounted to 4.98 ± 0.69 µM.

As to `C=CCN1CC(=O)N2[C@@H](Cc3ccc(O)cc3)C(=O)N(Cc3cccc4c(C(=O)C5CC5)c[nH]c34)C[C@@H]2N1C(=O)NCc1ccccc1` [compound 4], the half-maximal inhibitory concentration (IC50) under setting [1] came out at 0.14 ± 0.025 µM.

Take `C=CCN1CC(=O)N2C(Cc3ccc(O)cc3)C(=O)N(Cc3cccc(-c4ccccn4)c3)C[C@@H]2N1C(=O)NCc1ccccc1` (stereo partly shown) [compound 61]: the IC50 under setting [1] came out at 0.8 ± 0.07 µM.

`C=CCN1CC(=O)N2[C@@H](Cc3ccc(O)cc3)C(=O)N(Cc3ccc(F)c4scnc34)C[C@@H]2N1C(=O)NCCc1cccs1` [compound 104]: the IC50 under setting [1] amounted to 1.27 ± 0.1 µM.
